# Several values for one entry are separate records, joined by “and”; a condition that tells them apart may be missing. Equal entries are not always repeated. Where two headings read alike, the source gives them in different places.
# Tests used:
# [1] = Pharmacokinetic study in rats; assay type: in vivo
# Description: A pharmacokinetic study on compound B1 was carried out in rats.
# [2] = assay type: in vitro ADME, human; settings: for Mean Height / % Remaining: human, 1 μM; for % Remaining: plasma
# Description: Compound B1 was spiked directly into an individual lot of fresh human plasma, with sodium heparin as the anticoagulant, such that the final assay concentration of the compound was 1.00 μM. After incubation at room temperature for 0, 0.5, 1, 2, and 4 hours, samples were removed and aliquoted for analysis. Valacyclovir was used as a positive control. The plasma samples containing a test compound were processed by protein precipitation.
# A primary 0.500 mM stock solution of compound B1 was prepared in either acetonitrile or acetonitrile:water (1:1, v/v). A 0.200 mM working stock was made from the primary stock in acetonitrile:water (1:1, v/v), which was used in the human plasma stability study. The primary and working stock solutions were stored at −20° C. when not in use. When it was used in the assay, the working stock was kept at room temperature for as short a time as possible.
# The human plasma stability study was initiated by adding 5.00 μL of compound B1 stock solution to 0.995 mL of human plasma (sodium heparin) in a 1.7-mL snap tube. Time zero points were generated by immediately removing duplicate 50.0 μL aliquots of plasma after initiating each incubation and quenching in 150 μL of methanol. The plasma incubation tubes were capped and remained at room temperature between time points.
# After 0.5, 1, 2, and 4 hours of incubation, duplicate 50.0 μL aliquots of plasma were removed and placed into the extraction tubes containing 150 μL of methanol. Each time point was immediately extracted by vortex mixing, centrifuged and the supernate removed to HPLC vial for analysis. After extraction of all samples, the extracts were analyzed by LC/MS/MS.
# LC/MS/MS analysis of the incubation solutions was conducted by initial separation of the test compound peak using chromatography prior to detection by the mass spectrometer. The LC/MS system was comprised of a HPLC coupled with a TQS-Micro or Quattro Premier. The mobile phase was nebulized using heated nitrogen in a Z-spray source/interface set to electrospray in either positive ionization mode or negative ionization mode. The ionized compounds were detected using MS/MS. The data was acquired using MassLynx.
# [3] = Compound concentration in the CSF of rats; assay type: in vivo
# Description: Compound B1 in the CSF of the rats was also analyzed. The results are shown in Table 4 below wherein BQL stands for below the quantifiable limit of 2.0 ng/mL.
smiles,measurement,setting,value
"O=C(O)c1ccc(NC(=O)[C@@H]2CCC[C@H](C(=O)Nc3ccc(C(=O)O)cc3)C2)cc1 [B1, 4,4′-(((1R,3S)-cyclohexane-1,3-dicarbonyl)bis(azanediyl))dibenzoic acid]",AUCINF/Dose,[1]; IV,2950
same,CL or CL/F,[1]; IV,4.8 mL/min/kg
same,HL,[1]; IV,1.9 h
same,AUCINF/Dose,[1]; PO,43
same,HL,[1]; PO,14 h
same,AUC(0-inf),"[1]; rat, in vivo, 1 mg/kg, IV",2950 ng·h/mL
same,AUC(0-t),"[1]; rat, in vivo, 1 mg/kg, IV",2950 ng·h/mL
same,Cmax,"[1]; rat, in vivo, 1 mg/kg, IV",3980 ng/mL
same,AUC(0-inf),"[1]; rat, in vivo, 10 mg/kg, PO",431 ng·h/mL
same,AUC(0-t),"[1]; rat, in vivo, 10 mg/kg, PO",267 ng·h/mL
same,Cmax,"[1]; rat, in vivo, 10 mg/kg, PO",29 ng/mL
same,Tmax,"[1]; rat, in vivo, 10 mg/kg, PO",2 h
same,bioavailability,"[1]; rat, in vivo, 10 mg/kg, PO",1.25%
same,CL/F,"[1]; rat, in vivo, 10 mg/kg, PO, read-out: CL or CL/F",387 mL/min/kg
same,Metabolism in fresh human plasma,[2],not significantly metabolized
same,Mean Height,[2]; 0 h,"9,610"
same,Mean Height,[2]; 0.5 h,"9,430"
same,Mean Height,[2]; 1 h,"9,330"
same,Mean Height,[2]; 2 h,"9,610"
same,Mean Height,[2]; 4 h,"9,000"
same,% Remaining,[2]; 0 h,100%
same,% Remaining,[2]; 0.5 h,98.1%
same,% Remaining,[2]; 1 h,97.1%
same,% Remaining,[2]; 2 h,100%
same,% Remaining,[2]; 4 h,93.7%
same,CSF Concentration,"[3]; IV, 0.00 h, individual animals",BQL (below the quantifiable limit of 2.0 ng/mL)
same,CSF Concentration,"[3]; IV, 0.5 h, individual animals",26 ng/mL and 17 ng/mL and 36 ng/mL
same,CSF Concentration,"[3]; IV, 1.0 h, individual animals",51 ng/mL and 391 ng/mL and 17 ng/mL
same,CSF Concentration,"[3]; IV, 2.0 h, individual animals",33 ng/mL and 27 ng/mL
same,CSF Concentration,"[3]; IV, 4.0 h, individual animals",10 ng/mL and 21 ng/mL and 4.5 ng/mL
same,CSF Concentration,"[3]; IV, 8.0 h, individual animals",1.8 ng/mL
same,CSF Concentration,"[3]; IV, 12 h, individual animals",BQL (below the quantifiable limit of 2.0 ng/mL)
same,CSF Concentration,"[3]; PO, 0.00 h, individual animals",BQL (below the quantifiable limit of 2.0 ng/mL)
same,CSF Concentration,"[3]; PO, 0.5 h, individual animals",BQL (below the quantifiable limit of 2.0 ng/mL)
same,CSF Concentration,"[3]; PO, 1.0 h, individual animals",BQL (below the quantifiable limit of 2.0 ng/mL)
same,CSF Concentration,"[3]; PO, 2.0 h, individual animals",BQL (below the quantifiable limit of 2.0 ng/mL)
same,CSF Concentration,"[3]; PO, 4.0 h, individual animals",BQL (below the quantifiable limit of 2.0 ng/mL)
same,CSF Concentration,"[3]; PO, 8.0 h, individual animals",BQL (below the quantifiable limit of 2.0 ng/mL)
same,CSF Concentration,"[3]; PO, 12 h, individual animals",BQL (below the quantifiable limit of 2.0 ng/mL)
same,concentration at 0.5 h,"[3]; rat, CSF, iv, 0.5 h, mean",27 ng/mL
same,concentration at 1 h,"[3]; rat, CSF, iv, 1.0 h, mean",153 ng/mL
same,concentration at 2 h,"[3]; rat, CSF, iv, 2.0 h, individual animals, read-out: CSF Concentration",17 ng/mL
same,concentration at 2 h,"[3]; rat, CSF, iv, 2.0 h, mean, read-out: CSF Concentration, Mean",26 ng/mL
same,concentration at 4 h,"[3]; rat, CSF, iv, 4.0 h, mean",12 ng/mL
same,concentration at 8 h,"[3]; rat, CSF, iv, 8.0 h, individual animals, read-out: CSF Concentration",1.2 ng/mL
same,concentration at 8 h,"[3]; rat, CSF, iv, 8.0 h, mean, read-out: CSF Concentration, Mean",1.5 ng/mL
same,concentration at 2 h,"[3]; rat, CSF, po, 10 mg/kg, PO, 2.0 h, individual animals, read-out: CSF Concentration",4.6 ng/mL
same,concentration at 2 h,"[3]; rat, CSF, po, 10 mg/kg, PO, 2.0 h, mean (N=1), read-out: CSF Concentration, Mean",4.6 ng/mL
"CC(C)[C@H](N)C(=O)OCCOCn1cnc2c(=O)[nH]c(N)nc21 [Valacyclovir, reference compound]",Mean Height,[2]; 0 h,"21,400"
same,Mean Height,[2]; 0.5 h,"20,700"
same,Mean Height,[2]; 1 h,"20,500"
same,Mean Height,[2]; 2 h,"19,800"
same,Mean Height,[2]; 4 h,"17,700"
same,% Remaining,[2]; 0 h,100%
same,% Remaining,[2]; 0.5 h,96.7%
same,% Remaining,[2]; 1 h,95.8%
same,% Remaining,[2]; 2 h,92.5%
same,% Remaining,[2]; 4 h,82.7%
